In ChEMBL document CHEMBL1159042, “Discovery of N-aryl-9-oxo-9H-fluorene-1-carboxamides as a new series of apoptosis inducers using a cell- and caspase-based high-throughput screening assay. 2. Structure-activity relationships of the 9-oxo-9H-fluorene ring” (Bioorg Med Chem Lett, 2010):
Activity calls are given as the source filed them. The rule behind the calls is not given here.

What was measured:
SNU-398 [1] = assay: Induction of apoptosis in human SNU398 cells assessed as caspase activation after 48 hrs by HTS assay; type: functional, cell-based; details: SNU-398, 48 h
HCT-116 [2] = assay: Induction of apoptosis in human HCT116 cells assessed as caspase activation after 48 hrs by HTS assay; type: functional, cell-based; details: HCT-116, 48 h
T47D [3] = assay: Induction of apoptosis in human T47D cells assessed as caspase activation after 48 hrs by HTS assay; type: functional, cell-based
T47D [4] = assay: Growth inhibition of human T47D cells after 48 hrs; type: functional
SNU-398 [5] = assay: Growth inhibition of human SNU398 cells after 48 hrs; type: functional; details: SNU-398, 48 h
HCT-116 [6] = assay: Growth inhibition of human HCT116 cells after 48 hrs; type: functional; details: HCT-116, 48 h
SNU-398 [7] = assay: Ratio of drug to paclitaxel for induction of apoptosis in human SNU398 cells assessed as caspase activation after 48 hrs by HTS assay; type: functional
[8] = Inhibition of tubulin polymerization at 3 uM
T47D [9] = assay: Ratio of drug to paclitaxel for induction of apoptosis in human T47D cells assessed as caspase activation after 48 hrs by HTS assay; type: functional
[10] = Inhibition of tubulin polymerization at 0.5 uM
T47D [11] = assay: Ratio of drug to vinblastin for induction of apoptosis in human T47D cells assessed as caspase activation after 48 hrs by HTS assay; type: functional
HCT-116 [12] = assay: Ratio of drug to vinblastin for induction of apoptosis in human HCT116 cells assessed as caspase activation after 48 hrs by HTS assay; type: functional
SNU-398 [13] = assay: Ratio of drug to vinblastin for induction of apoptosis in human SNU398 cells assessed as caspase activation after 48 hrs by HTS assay; type: functional
[14] = Inhibition of tubulin polymerization at 2 uM
HCT-116 [15] = assay: Ratio of drug to paclitaxel for induction of apoptosis in human HCT116 cells assessed as caspase activation after 48 hrs by HTS assay; type: functional
T47D [16] = assay: Induction of apoptosis in human T47D cells assessed as accumulation at S phase at 2 uM after 48 hrs by propidium iodide-based flow cytometry; type: functional
T47D [17] = assay: Induction of apoptosis in human T47D cells assessed as accumulation at sub G1 phase at 2 uM after 48 hrs by propidium iodide-based flow cytometry; type: functional
T47D [18] = assay: Induction of apoptosis in human T47D cells assessed as accumulation at S phase at 2 uM after 24 hrs by propidium iodide-based flow cytometry; type: functional
T47D [19] = assay: Induction of apoptosis in human T47D cells assessed as accumulation at G1 phase at 2 uM after 48 hrs by propidium iodide-based flow cytometry; type: functional
T47D [20] = assay: Induction of apoptosis in human T47D cells assessed as accumulation at G1 phase at 2 uM after 24 hrs by propidium iodide-based flow cytometry; type: functional
T47D [21] = assay: Induction of apoptosis in human T47D cells assessed as accumulation at G2M phase at 2 uM after 48 hrs by propidium iodide-based flow cytometry; type: functional
T47D [22] = assay: Induction of apoptosis in human T47D cells assessed as accumulation at G2M phase at 2 uM after 24 hrs by propidium iodide-based flow cytometry; type: functional
T47D [23] = assay: Induction of apoptosis in human T47D cells assessed as accumulation at sub G1 phase at 2 uM after 24 hrs by propidium iodide-based flow cytometry; type: functional

| SMILES | EC50 (SNU-398 [1]) | EC50 (HCT-116 [2]) | EC50 (T47D [3]) | other results |
| --- | --- | --- | --- | --- |
| O=C(Nc1ccccc1-n1cccn1)c1cccc2c1OCC2 | > 10000 nM | > 10000 nM | > 10000 nM | – |
| Cc1ccccc1NC(=O)c1cccc2c1Cc1ccccc1-2 | > 10000 nM | > 10000 nM | 1700 nM | – |
| CC[C@]1(O)C[C@@H]2CN(CCc3c([nH]c4ccccc34)[C@@](C(=O)OC)(c3cc4c(cc3OC)N(C)[C@H]3[C@@](O)(C(=O)OC)[C@H](OC(C)=O)[C@]5(CC)C=CCN6CC[C@]43[C@@H]65)C2)C1 [VINBLASTINE] | – | – | – | GI50 (T47D [4]): 7 nM; GI50 (SNU-398 [5]): 5 nM; GI50 (HCT-116 [6]): 10 nM |
| O=C(Nc1ccccc1-n1cc(Br)cn1)c1cccc2c1C(=O)c1cc([N+](=O)[O-])ccc1-2 | 1400 nM | 1500 nM | 1300 nM | – |
| O=C(Nc1ccccc1-n1cccn1)c1cccc2c1sc1ccccc12 | 1500 nM | 2200 nM | 2100 nM | – |
| O=C(Nc1ccccc1-n1cccn1)c1cccc2c1C(=O)c1ccccc1-2 | – | – | – | GI50 (T47D [4]): 160 nM; GI50 (SNU-398 [5]): 780 nM; GI50 (HCT-116 [6]): 1100 nM |
| O=C(Nc1ccccc1-n1cccn1)c1cccc2c3ccccc3[s+]([O-])c12 (configuration not stated) | > 10000 nM | > 10000 nM | > 10000 nM | – |
| Cc1ccc(NC(=O)c2cccc3c2Cc2ccccc2-3)c(C)c1 | > 10000 nM | > 10000 nM | > 10000 nM | – |
| O=C(Nc1ccccc1-n1cccn1)c1cccc2c1S(=O)(=O)c1ccccc1-2 | 480 nM | > 10000 nM | > 10000 nM | – |
| Cc1ccccc1NC(=O)c1cccc2c1C(O)c1ccccc1-2 (configuration not stated) | > 10000 nM | > 10000 nM | 3000 nM | – |
| Cc1ccc(C)c(NC(=O)c2cccc3c2Cc2ccccc2-3)c1 | > 10000 nM | > 10000 nM | 2400 nM | – |
| O=C(Nc1ccccc1-n1cccn1)c1cccc2c1oc1ccccc12 | > 10000 nM | > 10000 nM | > 10000 nM | – |
| O=C(Nc1ccccc1-n1cccn1)c1cccc2c1C(=O)c1cc([N+](=O)[O-])ccc1-2 | 150 nM | 220 nM | 290 nM | Ratio (SNU-398 [7]): <10; GI50 (T47D [4]): 110 nM; inhibition [8]: 50%; GI50 (SNU-398 [5]): 72 nM; Ratio (T47D [9]): <10; inhibition [10]: Active; Ratio (T47D [11]): <10; Ratio (HCT-116 [12]): <10; Ratio (SNU-398 [13]): <10; inhibition [14]: 50%; Ratio (HCT-116 [15]): <10; GI50 (HCT-116 [6]): 420 nM |
| [N-]=[N+]=Nc1ccc2c(c1)C(=O)c1c(C(=O)Nc3ccccc3-n3cccn3)cccc1-2 | 150 nM | 290 nM | 470 nM | – |
| O=C(Nc1ccccc1-n1cccn1)c1cccc2c1Cc1ccccc1-2 | 6900 nM | 6200 nM | 3200 nM | – |
| Nc1ccc2c(c1)C(=O)c1c(C(=O)Nc3ccccc3-n3cccn3)cccc1-2 | 150 nM | 370 nM | 970 nM | Activity (T47D [16]): 10%; Ratio (SNU-398 [7]): <10; GI50 (T47D [4]): 150 nM; Activity (T47D [17]): 50%; inhibition [8]: 50%; GI50 (SNU-398 [5]): 84 nM; Ratio (T47D [9]): <10; Activity (T47D [18]): 14%; Activity (T47D [19]): 10%; inhibition [10]: Active; Ratio (T47D [11]): <10; Ratio (HCT-116 [12]): <10; Ratio (SNU-398 [13]): <10; Activity (T47D [20]): 11%; Activity (T47D [21]): 24%; Activity (T47D [22]): 60%; inhibition [14]: 50%; Activity (T47D [23]): 12%; Ratio (HCT-116 [15]): <10; GI50 (HCT-116 [6]): 510 nM |
| O=C(Nc1ccccc1-n1cccn1)c1ccccc1C(=O)c1ccccc1 | > 10000 nM | > 10000 nM | > 10000 nM | – |
| O=C(Nc1ccccc1-n1cccn1)c1cccc2c1[nH]c1ccccc12 | > 10000 nM | > 10000 nM | > 10000 nM | – |
| CC(=O)O[C@H]1C(=O)[C@@]2(C)[C@H]([C@H](OC(=O)c3ccccc3)[C@]3(O)C[C@H](OC(=O)[C@H](O)[C@@H](NC(=O)c4ccccc4)c4ccccc4)C(C)=C1C3(C)C)[C@]1(OC(C)=O)CO[C@@H]1C[C@@H]2O [PACLITAXEL] | – | – | – | GI50 (T47D [4]): 26 nM; GI50 (SNU-398 [5]): 61 nM; GI50 (HCT-116 [6]): 60 nM |
| Cc1cccc(NC(=O)c2cccc3c2Cc2ccccc2-3)c1C | > 10000 nM | > 10000 nM | > 10000 nM | – |
